Test results as given in patent US4694069A, “Kibdelosporangium aridum SK&F-AAD-609” (SmithKline Beckman Corporation, priority 1985, dated 1987).

Assays:
[1] = test system: mixed intestinal microflora (cecum fluid); experiment: Swine in vitro model; conditions: one level, up to 166.67 ppm; 4-5 h
Method: A swine in vitro model was used to characterize AAD-609 antibiotics as potential feed additives in swine and poultry. Mixed intestinal microflora were obtained from ileally-cannulated pigs. Virginiamycin, carbadox, AAD-216 and its components, and AAD-609 Complex (containing less than 5% AAD-216 antibiotics) were tested at one level. […] Glucose (GLU) was spared from microbial degradation. Volatile fatty acids (TOTAL) were the major end-product of microbial metabolism while lactic acid production were reduced. […] Since AAD-609 and AAD-216 give similar in vitro results, it is expected that AAD-609 has similar growth-promoting activity in monogastric animals. Also, the in vitro activity of AAD-609 is similar to the activity previously observed with bacitracin in this model.
The swine in vitro model was carried out by incubating 1.5 ml of cecum fluid, from a swine fed normal rations, mixed with 1.5 ml of a nutrient broth (3 mg casein hydrolysate, 30 mg maltose, 1.25 mg urea, 0.5 mg lysine, and 30 mg cellobiose) and with up to 166.67 parts per million of a selected growth promotant at 39° C., with oscillation, for about 4-5 hours. Results, percentage of control, are reported in the following table in which all abbreviations are as above except that LLA means L-lactate and ETOH means ethanol.

[2] = test system: rumen fermentation (strained rumen fluid); experiment: Rumen in vitro model; set-up: species or system steer; conditions: for AAN (alpha amino nitrogen) / AMO (ammonia nitrogen) / LYS (lysine): 6 h; for % PR (percent propionate) / ACE (acetate) / BUT (butyrate) / ETOH (ethanol) / IBU (isobutyrate) / IVA (isovalerate) / PRO (propionate) / TOTAL (total volatile fatty acids) / VAL: 24 h
Method: The AAD-609 antibiotics were characterized in a rumen in vitro model to assess their potential as feed additives for ruminants. […] Specifically, strained rumen fluid (10 ml) obtained from a fistulated steer receiving a roughage ration, was mixed with 10 ml of nutrient broth (20 mg casein hydrolysate, 100 mg maltose, 15 mg urea, 400 mg solka floc (cellulose), 100 mg cellobiose and 100 mg starch) and with a selected growth promotant and incubated at 39° C., with oscillation, for 24 hours. […] Measurement of AMO, LYS and AAN was done with a sample taken from the incubation flask after 6 hours.

## CNC1C(=O)NC2C(=O)NC(C(=O)NC3C(=O)NC4C(=O)NC(C(=O)NC(C(=O)O)c5cc(O)cc(OC6OC(CO)C(O)C(O)C6O)c5-c5cc4ccc5O)C(O)c4cc(Cl)c(c(Cl)c4)Oc4cc3cc(c4OC3OC(C(=O)O)C(O)C(O)C3NC(=O)CCCCCCCC(C)C)Oc3ccc(cc3Cl)C2O)c2cc(cc(O)c2Cl)Oc2cc1ccc2O (stereo not shown) [AAD-216 B]
[1]
  % PR (percent propionate): 119 % of control
  ACE (acetate): 217 % of control
  BUT (butyrate): 154 % of control
  ETOH (ethanol): 104 % of control
  GLU (glucose): 180 % of control
  IBU (isobutyrate): 0 % of control
  IVA (isovalerate): 0 % of control
  LLA (L-lactate): 2 % of control
  LYS (lysine): 25 % of control
  PRO (propionate): 305 % of control
  TOTAL (total volatile fatty acids): 257 % of control
  VAL: 0 % of control
[2]; 0.50 ppm
  AAN (alpha amino nitrogen): 121 % of control
  AMO (ammonia nitrogen): 96 % of control
  LYS (lysine): 96 % of control
  % PR (percent propionate): 104 % of control
  ACE (acetate): 107 % of control
  BUT (butyrate): 97 % of control
  ETOH (ethanol): 0 % of control
  IBU (isobutyrate): 108 % of control
  IVA (isovalerate): 94 % of control
  PRO (propionate): 108 % of control
  TOTAL (total volatile fatty acids): 103 % of control
  VAL: 101 % of control
[2]; 5.00 ppm
  AAN (alpha amino nitrogen): 140 % of control
  AMO (ammonia nitrogen): 93 % of control
  LYS (lysine): 120 % of control
  % PR (percent propionate): 141 % of control
  ACE (acetate): 106 % of control
  BUT (butyrate): 88 % of control
  ETOH (ethanol): 0 % of control
  IBU (isobutyrate): 95 % of control
  IVA (isovalerate): 67 % of control
  PRO (propionate): 153 % of control
  TOTAL (total volatile fatty acids): 108 % of control
  VAL: 86 % of control
[2]; 50.00 ppm
  AAN (alpha amino nitrogen): 178 % of control
  AMO (ammonia nitrogen): 107 % of control
  LYS (lysine): 132 % of control
  % PR (percent propionate): 144 % of control
  ACE (acetate): 103 % of control
  BUT (butyrate): 98 % of control
  ETOH (ethanol): 0 % of control
  IBU (isobutyrate): 123 % of control
  IVA (isovalerate): 111 % of control
  PRO (propionate): 159 % of control
  TOTAL (total volatile fatty acids): 110 % of control
  VAL: 28 % of control

## CNC1C(=O)NC2C(=O)NC(C(=O)NC3C(=O)NC4C(=O)NC(C(=O)NC(C(=O)O)c5cc(O)cc(OC6OC(CO)C(O)C(O)C6O)c5-c5cc4ccc5O)C(O)c4cc(Cl)c(c(Cl)c4)Oc4cc3cc(c4OC3OC(C(=O)O)C(O)C(O)C3NC(=O)CCCCCCCCC(C)C)Oc3ccc(cc3Cl)C2O)c2cc(cc(O)c2Cl)Oc2cc1ccc2O (stereo not shown) [AAD-216 C]
[1]
  % PR (percent propionate): 127 % of control
  ACE (acetate): 175 % of control
  BUT (butyrate): 105 % of control
  ETOH (ethanol): 0 % of control
  GLU (glucose): 181 % of control
  IBU (isobutyrate): 0 % of control
  IVA (isovalerate): 0 % of control
  LLA (L-lactate): 2 % of control
  LYS (lysine): 29 % of control
  PRO (propionate): 281 % of control
  TOTAL (total volatile fatty acids): 221 % of control
  VAL: 0 % of control
[2]; 0.50 ppm
  AAN (alpha amino nitrogen): 96 % of control
  AMO (ammonia nitrogen): 99 % of control
  LYS (lysine): 78 % of control
  % PR (percent propionate): 105 % of control
  ACE (acetate): 94 % of control
  BUT (butyrate): 101 % of control
  ETOH (ethanol): 0 % of control
  IBU (isobutyrate): 123 % of control
  IVA (isovalerate): 123 % of control
  PRO (propionate): 105 % of control
  TOTAL (total volatile fatty acids): 100 % of control
  VAL: 102 % of control
[2]; 5.00 ppm
  AAN (alpha amino nitrogen): 136 % of control
  AMO (ammonia nitrogen): 98 % of control
  LYS (lysine): 102 % of control
  % PR (percent propionate): 148 % of control
  ACE (acetate): 96 % of control
  BUT (butyrate): 83 % of control
  ETOH (ethanol): 0 % of control
  IBU (isobutyrate): 86 % of control
  IVA (isovalerate): 56 % of control
  PRO (propionate): 148 % of control
  TOTAL (total volatile fatty acids): 100 % of control
  VAL: 51 % of control
[2]; 50.00 ppm
  AAN (alpha amino nitrogen): 166 % of control
  AMO (ammonia nitrogen): 106 % of control
  LYS (lysine): 144 % of control
  % PR (percent propionate): 149 % of control
  ACE (acetate): 98 % of control
  BUT (butyrate): 88 % of control
  ETOH (ethanol): 0 % of control
  IBU (isobutyrate): 111 % of control
  IVA (isovalerate): 87 % of control
  PRO (propionate): 154 % of control
  TOTAL (total volatile fatty acids): 104 % of control
  VAL: 30 % of control

## COC(=O)N/N=C/c1c[n+]([O-])c2ccccc2[n+]1[O-] [Carbadox, carbadox]
[1]
  % PR (percent propionate): 38 % of control
  ACE (acetate): 47 % of control
  BUT (butyrate): 46 % of control
  ETOH (ethanol): 62 % of control
  GLU (glucose): 138 % of control
  IBU (isobutyrate): 0 % of control
  IVA (isovalerate): 0 % of control
  LLA (L-lactate): 9 % of control
  LYS (lysine): 79 % of control
  PRO (propionate): 11 % of control
  TOTAL (total volatile fatty acids): 30 % of control
  VAL: 0 % of control

## CC[C@@]1([C@@H]2O[C@@H]([C@H]3O[C@@](O)(CO)[C@H](C)C[C@@H]3C)C[C@@H]2C)CC[C@H]([C@]2(C)CC[C@]3(C[C@H](O)[C@@H](C)[C@@H]([C@@H](C)[C@@H](OC)[C@H](C)C(=O)O)O3)O2)O1 [Monensin, monensin]
[2]; 0.50 ppm
  AAN (alpha amino nitrogen): 117 % of control
  AMO (ammonia nitrogen): 103 % of control
  LYS (lysine): 78 % of control
  % PR (percent propionate): 131 % of control
  ACE (acetate): 100 % of control
  BUT (butyrate): 92 % of control
  ETOH (ethanol): 0 % of control
  IBU (isobutyrate): 112 % of control
  IVA (isovalerate): 150 % of control
  PRO (propionate): 141 % of control
  TOTAL (total volatile fatty acids): 108 % of control
  VAL: 100 % of control
[2]; 5.00 ppm
  AAN (alpha amino nitrogen): 185 % of control
  AMO (ammonia nitrogen): 101 % of control
  LYS (lysine): 144 % of control
  % PR (percent propionate): 189 % of control
  ACE (acetate): 101 % of control
  BUT (butyrate): 61 % of control
  ETOH (ethanol): 0 % of control
  IBU (isobutyrate): 84 % of control
  IVA (isovalerate): 103 % of control
  PRO (propionate): 208 % of control
  TOTAL (total volatile fatty acids): 110 % of control
[2]; 50.00 ppm
  AAN (alpha amino nitrogen): 248 % of control
  AMO (ammonia nitrogen): 101 % of control
  LYS (lysine): 186 % of control
  ACE (acetate): 96 % of control
  BUT (butyrate): 53 % of control
  ETOH (ethanol): 0 % of control
  IBU (isobutyrate): 123 % of control
  IVA (isovalerate): 132 % of control
  PRO (propionate): 258 % of control
  TOTAL (total volatile fatty acids): 117 % of control
  VAL: 81 % of control

## avoparcin
[2]; 0.50 ppm
  AAN (alpha amino nitrogen): 99 % of control
  AMO (ammonia nitrogen): 93 % of control
  LYS (lysine): 120 % of control
  % PR (percent propionate): 102 % of control
  ACE (acetate): 100 % of control
  BUT (butyrate): 103 % of control
  ETOH (ethanol): 0 % of control
  IBU (isobutyrate): 91 % of control
  IVA (isovalerate): 97 % of control
  PRO (propionate): 104 % of control
  TOTAL (total volatile fatty acids): 102 % of control
  VAL: 103 % of control
[2]; 5.00 ppm
  AAN (alpha amino nitrogen): 120 % of control
  AMO (ammonia nitrogen): 97 % of control
  LYS (lysine): 150 % of control
  % PR (percent propionate): 123 % of control
  ACE (acetate): 94 % of control
  BUT (butyrate): 82 % of control
  ETOH (ethanol): 0 % of control
  IBU (isobutyrate): 103 % of control
  IVA (isovalerate): 94 % of control
  PRO (propionate): 116 % of control
  TOTAL (total volatile fatty acids): 94 % of control
  VAL: 73 % of control
[2]; 50.00 ppm
  AAN (alpha amino nitrogen): 182 % of control
  AMO (ammonia nitrogen): 111 % of control
  LYS (lysine): 114 % of control
  % PR (percent propionate): 129 % of control
  ACE (acetate): 98 % of control
  BUT (butyrate): 90 % of control
  ETOH (ethanol): 0 % of control
  IBU (isobutyrate): 117 % of control
  IVA (isovalerate): 90 % of control
  PRO (propionate): 130 % of control
  TOTAL (total volatile fatty acids): 101 % of control
  VAL: 68 % of control
